Measurements published in ChEMBL document CHEMBL3734719, “Discovery of highly potent triazoleantifungal agents with piperidine-oxadiazole side chains” (2015).
≈ marks a conversion by molar mass, not a printed value. Calls of active or inactive are those of the source. The rule behind the calls is not given here.

Legend:
Candida albicans [1] = assay: Antifungal activity against Candida albicans SC5314 assessed as inhibition of yeast to hypha transisition at >1 ug/ml after 3 hrs measured as increase in yeast cells; assay type: functional, organism-based
Candida albicans [2] = assay: Antifungal activity against Candida albicans SC5314 assessed as inhibition of yeast to hypha transisition at >1 ug/ml after 3 hrs measured as increase in pseudohyphal cells; assay type: functional, organism-based
Caenorhabditis elegans = assay: Growth inhibition of Caenorhabditis elegans at 1 to 160 ug/ml after 6 days; assay type: functional, organism-based
Candida albicans [3] = assay: Antifungal activity against Candida albicans after 48 hrs by spectrophotometry; assay type: functional
Candida parapsilosis = assay: Antifungal activity against Candida parapsilosis after 48 hrs by spectrophotometry; assay type: functional; settings: Lodderomyces parapsilosis
Cryptococcus neoformans = assay: Antifungal activity against Cryptococcus neoformans after 48 hrs by spectrophotometry; assay type: functional
Nakaseomyces glabratus = assay: Antifungal activity against Candida glabrata after 48 hrs by spectrophotometry; assay type: functional
Aspergillus fumigatus = assay: Antifungal activity against Aspergillus fumigatus after 48 hrs by spectrophotometry; assay type: functional
Trichophyton rubrum = assay: Antifungal activity against Trichophyton rubrum after 48 hrs by spectrophotometry; assay type: functional
Nannizzia gypsea = assay: Antifungal activity against Microsporum gypseum after 48 hrs by spectrophotometry; assay type: functional
Candida albicans [4] = assay: Antifungal activity against Candida albicans after 48 hrs by spectrophotometry relative to fluconazole; assay type: functional
Candida albicans [5] = assay: Antifungal activity against fluconazole-resistant Candida albicans 103 after 48 hrs by spectrophotometry; assay type: functional; settings: Candida albicans, 103, 48 h
Candida albicans [6] = assay: Antifungal activity against fluconazole-resistant Candida albicans 805 after 48 hrs by spectrophotometry; assay type: functional; settings: Candida albicans, 805, 48 h
Candida albicans [7] = assay: Antifungal activity against fluconazole-resistant Candida albicans 0710922 after 48 hrs by spectrophotometry; assay type: functional; settings: Candida albicans, 0710922, 48 h
Candida albicans [8] = assay: Antifungal activity against Candida albicans SC5314 assessed as inhibition of yeast to hypha transisition at >1 ug/ml after 3 hrs measured as decrease in hyphae; assay type: functional, organism-based

Row | Structure (SMILES) | inhibition (Candida albicans [1]) | inhibition (Candida albicans [2]) | inhibition (Caenorhabditis elegans) | MIC80 (Candida albicans [3]) [µg/mL] | MIC80 (Candida parapsilosis) [µg/mL] | MIC80 (Cryptococcus neoformans) [µg/mL] | MIC80 (Nakaseomyces glabratus) [µg/mL] | MIC80 (Aspergillus fumigatus) [µg/mL] | MIC80 (Trichophyton rubrum) [µg/mL] | MIC80 (Nannizzia gypsea) [µg/mL] | Ratio (Candida albicans [4]) | MIC50 (Candida albicans [5]) [µg/mL] | MIC80 (Candida albicans [5]) [µg/mL] | MIC50 (Candida albicans [6]) [µg/mL] | MIC80 (Candida albicans [6]) [µg/mL] | MIC50 (Candida albicans [7]) [µg/mL] | MIC80 (Candida albicans [7]) [µg/mL] | inhibition (Candida albicans [8])
1 | OC(CN1CCC(c2nnc(-c3ccc(C(F)(F)F)cc3)o2)CC1)(Cn1cncn1)c1ccc(F)cc1F (centres undefined) | Active | Active | inactive | 0.031 (≈ 0.058 µM) | 0.5 (≈ 0.935 µM) | 0.25 (≈ 0.468 µM) | 2 (≈ 3.74 µM) | 2 (≈ 3.74 µM) | 1 (≈ 1.87 µM) | 1 (≈ 1.87 µM) | 8 | 0.25 (≈ 0.468 µM) | 8 (≈ 15 µM) | 0.0625 (≈ 0.117 µM) | 16 (≈ 29.9 µM) | 0.125 (≈ 0.234 µM) | 16 (≈ 29.9 µM) | Active
2 | COc1ccc(-c2noc(C3CCN(CC(O)(Cn4cncn4)c4ccc(F)cc4F)CC3)n2)cc1 (centres undefined) | Active | Active | inactive | 0.016 (≈ 0.0322 µM) | 0.25 (≈ 0.504 µM) | 0.25 (≈ 0.504 µM) | 1 (≈ 2.01 µM) | 1 (≈ 2.01 µM) | 0.5 (≈ 1.01 µM) | 2 (≈ 4.03 µM) | 8 | 0.25 (≈ 0.504 µM) | 4 (≈ 8.06 µM) | 0.125 (≈ 0.252 µM) | 8 (≈ 16.1 µM) | 0.125 (≈ 0.252 µM) | 16 (≈ 32.2 µM) | Active
3 | OC(CN1CCC(c2nc(-c3ccsc3)no2)CC1)(Cn1cncn1)c1ccc(F)cc1F (centres undefined) |  |  |  | 0.5 (≈ 1.06 µM) | 4 (≈ 8.47 µM) | 2 (≈ 4.23 µM) | 4 (≈ 8.47 µM) | 4 (≈ 8.47 µM) | 4 (≈ 8.47 µM) | 4 (≈ 8.47 µM) |  |  |  |  |  |  |  | 
4 | OC(CN1CCC(c2nc(-c3ccc(F)cc3)no2)CC1)(Cn1cncn1)c1ccc(F)cc1F (centres undefined) |  |  |  | 0.5 (≈ 1.03 µM) | 2 (≈ 4.13 µM) | 1 (≈ 2.06 µM) | 2 (≈ 4.13 µM) | 2 (≈ 4.13 µM) | 4 (≈ 8.26 µM) | 1 (≈ 2.06 µM) |  |  |  |  |  |  |  | 
5 | COc1ccc(-c2nnc(C3CCN(CC(O)(Cn4cncn4)c4ccc(F)cc4F)CC3)o2)cc1 (centres undefined) |  |  |  | 0.063 (≈ 0.127 µM) | 1 (≈ 2.01 µM) | 0.5 (≈ 1.01 µM) | 2 (≈ 4.03 µM) | 2 (≈ 4.03 µM) | 1 (≈ 2.01 µM) | 1 (≈ 2.01 µM) |  |  |  |  |  |  |  | 
6 | OC(CN1CCC(c2nc(-c3ccco3)no2)CC1)(Cn1cncn1)c1ccc(F)cc1F (centres undefined) |  |  |  | 0.063 (≈ 0.138 µM) | 1 (≈ 2.19 µM) | 0.5 (≈ 1.1 µM) | 1 (≈ 2.19 µM) | 1 (≈ 2.19 µM) | 2 (≈ 4.38 µM) | 2 (≈ 4.38 µM) |  |  |  |  |  |  |  | 
7 | Cc1ccc(-c2noc(C3CCN(CC(O)(Cn4cncn4)c4ccc(F)cc4F)CC3)n2)cc1 (centres undefined) |  |  |  | 0.5 (≈ 1.04 µM) | 2 (≈ 4.16 µM) | 4 (≈ 8.32 µM) | 4 (≈ 8.32 µM) | 4 (≈ 8.32 µM) | 2 (≈ 4.16 µM) | 8 (≈ 16.6 µM) |  |  |  |  |  |  |  | 
8 | OC(Cn1cncn1)(Cn1cncn1)c1ccc(F)cc1F [FLUCONAZOLE] |  |  |  | 0.25 (≈ 0.816 µM) | 2 (≈ 6.53 µM) | 0.25 (≈ 0.816 µM) | 4 (≈ 13.1 µM) | 4 (≈ 13.1 µM) | 2 (≈ 6.53 µM) | 32 (≈ 104 µM) |  | 256 (≈ 836 µM) | > 1020 | 256 (≈ 836 µM) | > 1020 | 512 (≈ 1670 µM) | > 1020 | 
9 | CCc1ccc(-c2nnc(C3CCN(CC(O)(Cn4cncn4)c4ccc(F)cc4F)CC3)o2)cc1 (centres undefined) |  |  |  | 0.5 (≈ 1.01 µM) | 2 (≈ 4.04 µM) | 2 (≈ 4.04 µM) | 4 (≈ 8.09 µM) | 4 (≈ 8.09 µM) | 4 (≈ 8.09 µM) | 4 (≈ 8.09 µM) |  |  |  |  |  |  |  | 
10 | OC(CN1CCC(c2nnc(-c3c(F)cccc3F)o2)CC1)(Cn1cncn1)c1ccc(F)cc1F (centres undefined) |  |  |  | 0.063 (≈ 0.125 µM) | 0.5 (≈ 0.995 µM) | ≤ 0.125 | 0.5 (≈ 0.995 µM) | 0.5 (≈ 0.995 µM) | 2 (≈ 3.98 µM) | 2 (≈ 3.98 µM) |  |  |  |  |  |  |  | 
11 | OC(CN1CCC(c2nc(-c3cccnc3)no2)CC1)(Cn1cncn1)c1ccc(F)cc1F (centres undefined) |  |  |  | 0.063 (≈ 0.135 µM) | 0.25 (≈ 0.535 µM) | 0.125 (≈ 0.267 µM) | 0.125 (≈ 0.267 µM) | 0.125 (≈ 0.267 µM) | 1 (≈ 2.14 µM) | 0.5 (≈ 1.07 µM) |  |  |  |  |  |  |  | 
12 | OC(CN1CCC(c2nnc(-c3ccncc3)o2)CC1)(Cn1cncn1)c1ccc(F)cc1F (centres undefined) |  |  |  | 2 (≈ 4.28 µM) | 16 (≈ 34.2 µM) | 4 (≈ 8.56 µM) | 16 (≈ 34.2 µM) | 16 (≈ 34.2 µM) | 32 (≈ 68.5 µM) | 4 (≈ 8.56 µM) |  |  |  |  |  |  |  | 
13 | OC(CN1CCC(c2nnc(-c3ccc(Cl)cc3)o2)CC1)(Cn1cncn1)c1ccc(F)cc1F (centres undefined) |  |  |  | 0.5 (≈ 0.998 µM) | 4 (≈ 7.99 µM) | 1 (≈ 2 µM) | 8 (≈ 16 µM) | 8 (≈ 16 µM) | 8 (≈ 16 µM) | 64 (≈ 128 µM) |  |  |  |  |  |  |  | 
